Data from US20040132107A1, “Functional assay for g-protein-coupled receptors based on insect cells” (priority 2003, published 2004).

Tests used:
human Dopamine D1A GPCR = human Dopamine D1A GPCR (Homo sapiens, UniProt P21728); experiment: DADR insect-based assay cell lines (Sf9; Dopamine D1A, Galpha16, aequorin), fractional luminescence
Procedure: In one embodiment, the assay system of the invention was implemented using the human dopamine D1 (hDD1) GPCR, which is normally coupled to a Gs-type G protein.
To assay GPCR antagonists required a modified protocol. […] Light output was monitored for 75 seconds. […] Data analysis was performed as described above. An optional 10 second rocking step was added after each individual well was measured, to ensure that the insect-based assay cells arrayed in the plate stayed in suspension
Agonist and antagonist concentration-response curves were obtained by plotting graphs of A/(A+L) on the Y-axis versusLOG10 of ligand concentration (Molar) on the X-axis. Curve fitting was performed using the software package GraphPad Prism (GraphPad Software, Inc., San Diego, Calif., USA). The 3- or 4-Parameter Logistic equations were used for non-linear regression, and to acquire derived values (EC50 and Hill Slope).

[1] = molecular target: T1, human Thromboxane A2 GPCR (Homo sapiens, UniProt P21731); experiment: TA2R insect-based assay cell lines (Sf9, transiently transfected), fractional luminescence
T1 construct: expressed in transfected cells; host or cells: Sf9, transiently transfected
T1 sequence (P21731 1-343): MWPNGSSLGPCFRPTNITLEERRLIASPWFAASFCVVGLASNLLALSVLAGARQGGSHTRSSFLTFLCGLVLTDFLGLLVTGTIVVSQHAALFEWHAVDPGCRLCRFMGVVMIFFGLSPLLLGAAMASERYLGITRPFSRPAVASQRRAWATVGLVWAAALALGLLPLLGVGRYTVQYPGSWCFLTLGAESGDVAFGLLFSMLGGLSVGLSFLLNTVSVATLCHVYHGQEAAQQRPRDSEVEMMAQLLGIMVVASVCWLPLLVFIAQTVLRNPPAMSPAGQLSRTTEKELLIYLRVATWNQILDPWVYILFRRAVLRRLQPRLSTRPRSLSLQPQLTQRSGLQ
Procedure: Light output was monitored for 70 seconds. […] Data analysis was performed as described above
Agonist and antagonist concentration-response curves were obtained by plotting graphs of A/(A+L) on the Y-axis versusLOG10 of ligand concentration (Molar) on the X-axis.Curve fitting was performed using the software package GraphPad Prism (GraphPad Software, Inc., San Diego, Calif., USA). The 3- or 4-Parameter Logistic equations were used for non-linear regression, and to acquire derived values (EC50 and Hill Slope).

human 5-HT2A GPCR = human 5-HT2A GPCR (Homo sapiens, UniProt P28223); experiment: 5H2A insect-based assay cell lines (Sf9, transiently transfected), fractional luminescence; details: increasing concentrations of agonist; FIG. 14
Chain of human 5-HT2A GPCR (P28223 whole entry): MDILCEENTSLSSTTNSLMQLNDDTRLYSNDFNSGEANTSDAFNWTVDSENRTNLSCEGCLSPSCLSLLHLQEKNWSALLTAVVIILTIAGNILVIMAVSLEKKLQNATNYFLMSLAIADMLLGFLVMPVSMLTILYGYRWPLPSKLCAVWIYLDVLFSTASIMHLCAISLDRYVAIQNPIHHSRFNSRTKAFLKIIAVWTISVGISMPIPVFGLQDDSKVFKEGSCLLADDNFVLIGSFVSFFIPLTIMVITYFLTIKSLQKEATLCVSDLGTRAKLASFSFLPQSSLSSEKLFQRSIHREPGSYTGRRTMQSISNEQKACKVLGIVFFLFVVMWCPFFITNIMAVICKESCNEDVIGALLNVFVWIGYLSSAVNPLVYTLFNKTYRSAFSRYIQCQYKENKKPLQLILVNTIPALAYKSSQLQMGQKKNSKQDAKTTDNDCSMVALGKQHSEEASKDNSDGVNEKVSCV

human 5-HT1A GPCR = molecular target: T2, human 5-HT1A GPCR (Homo sapiens, UniProt P08908); details: FIG. 16
T2 sequence (P08908 1-422): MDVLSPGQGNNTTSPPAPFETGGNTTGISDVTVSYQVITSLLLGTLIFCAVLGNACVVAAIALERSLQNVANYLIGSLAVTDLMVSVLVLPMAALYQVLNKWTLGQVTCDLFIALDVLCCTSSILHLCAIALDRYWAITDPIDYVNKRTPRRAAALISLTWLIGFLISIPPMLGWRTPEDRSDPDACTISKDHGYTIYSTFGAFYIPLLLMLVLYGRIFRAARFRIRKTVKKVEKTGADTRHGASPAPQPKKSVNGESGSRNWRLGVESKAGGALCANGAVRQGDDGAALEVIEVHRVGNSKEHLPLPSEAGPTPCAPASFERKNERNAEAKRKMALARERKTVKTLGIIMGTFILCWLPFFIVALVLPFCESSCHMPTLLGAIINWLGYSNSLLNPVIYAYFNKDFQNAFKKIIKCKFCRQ

human Histamine H1 GPCR = molecular target: T3, human Histamine H1 GPCR (Homo sapiens, UniProt P35367); experiment: HH1R insect-based assay cell lines (Sf9, transiently transfected), fractional luminescence
T3 construct: expressed in transfected cells; host or cells: Sf9, transiently transfected
T3 sequence (P35367 whole entry): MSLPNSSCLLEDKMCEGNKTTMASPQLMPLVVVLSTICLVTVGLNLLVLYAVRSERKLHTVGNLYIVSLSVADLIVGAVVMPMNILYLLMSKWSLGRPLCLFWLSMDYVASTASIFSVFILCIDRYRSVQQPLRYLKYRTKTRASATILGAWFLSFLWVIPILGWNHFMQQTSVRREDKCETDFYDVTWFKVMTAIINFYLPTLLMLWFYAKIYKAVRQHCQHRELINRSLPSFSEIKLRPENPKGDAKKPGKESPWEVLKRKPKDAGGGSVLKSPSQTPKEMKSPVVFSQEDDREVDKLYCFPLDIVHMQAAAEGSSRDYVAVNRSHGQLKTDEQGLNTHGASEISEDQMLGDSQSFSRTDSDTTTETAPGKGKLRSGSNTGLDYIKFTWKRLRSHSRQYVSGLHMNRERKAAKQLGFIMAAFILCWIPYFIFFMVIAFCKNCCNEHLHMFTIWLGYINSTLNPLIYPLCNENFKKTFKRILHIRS

[2] = molecular target: human beta2 Adrenergic receptor (Homo sapiens, UniProt P07550); experiment: B2AR insect-based assay cell lines (Sf9, transiently transfected), fractional luminescence; details: FIG. 17
Chain of human beta2 Adrenergic receptor (P07550 whole entry): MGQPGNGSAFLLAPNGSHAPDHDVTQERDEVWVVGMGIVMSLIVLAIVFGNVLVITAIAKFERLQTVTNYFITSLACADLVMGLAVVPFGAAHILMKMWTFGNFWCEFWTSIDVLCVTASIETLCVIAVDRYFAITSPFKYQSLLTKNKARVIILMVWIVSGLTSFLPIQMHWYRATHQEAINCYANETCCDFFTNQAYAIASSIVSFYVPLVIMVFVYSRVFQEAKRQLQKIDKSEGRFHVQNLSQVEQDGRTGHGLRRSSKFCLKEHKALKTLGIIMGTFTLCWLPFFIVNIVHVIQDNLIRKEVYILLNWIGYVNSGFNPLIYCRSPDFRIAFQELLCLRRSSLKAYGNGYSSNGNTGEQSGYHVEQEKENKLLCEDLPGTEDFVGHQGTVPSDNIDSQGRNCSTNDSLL

[3] = 100 microM, cells expressing all three assay components

Chain of human Dopamine D1A GPCR (P21728 whole entry): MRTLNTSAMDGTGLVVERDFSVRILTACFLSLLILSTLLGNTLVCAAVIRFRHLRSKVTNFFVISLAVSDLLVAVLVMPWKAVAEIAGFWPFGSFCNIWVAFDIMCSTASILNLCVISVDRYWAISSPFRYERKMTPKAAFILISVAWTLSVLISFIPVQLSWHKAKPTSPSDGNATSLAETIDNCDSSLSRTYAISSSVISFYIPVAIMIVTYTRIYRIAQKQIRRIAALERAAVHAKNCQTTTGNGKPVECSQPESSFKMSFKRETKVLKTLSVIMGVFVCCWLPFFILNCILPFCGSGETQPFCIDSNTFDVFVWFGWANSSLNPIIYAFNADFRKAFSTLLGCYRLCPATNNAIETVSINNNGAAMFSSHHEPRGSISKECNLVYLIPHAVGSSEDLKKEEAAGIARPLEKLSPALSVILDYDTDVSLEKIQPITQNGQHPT

Compound: OCCN1CCN(CC/C=C2/c3ccccc3Sc3ccc(C(F)(F)F)cc32)CC1 [cis-Flupenthixol]
- block of dopamine agonist activation by pre-incubation with antagonist (human Dopamine D1A GPCR; pre-incubation with antagonist, then dopamine, FIGS. 4 and 6): can be blocked
- antagonist concentration-activity curve (human Dopamine D1A GPCR; varying antagonist against fixed dopamine at 100 microM, FIG. 6): Characteristic sigmoidal antagonist concentration-activity curves

Compound: O=C(O)CCC/C=C\C[C@@H]1[C@H](CNNC(=O)Nc2ccccc2)[C@H]2CC[C@@H]1O2 [SQ29,548]
- block of U44069 agonist activity by pre-incubation with antagonist ([1]; FIG. 10): can be blocked
- antagonist concentration-activity curve ([1]; varying antagonist against fixed U44069 at 10 microM, FIG. 10): Characteristic sigmoidal antagonist concentration-activity curves

Compound: NCCc1c[nH]c2ccc(O)cc12 [serotonin]
- agonist concentration-activity curve (human 5-HT2A GPCR): characteristic sigmoidal agonist concentration-activity curve
- response of assay cells to agonist (human 5-HT1A GPCR; [3]): respond

Compound: CC(C)NCC(O)COc1cccc2ccccc12 (racemic) [DL-propranalol]
- effect of antagonist pre-incubation on activation by serotonin (human 5-HT1A GPCR; antagonist 10 microM, then serotonin): prevents subsequent activation

Compound: NCCc1c[nH]cn1 [histamine]
- agonist concentration-activity curve (human Histamine H1 GPCR): characteristic sigmoidal agonist concentration-activity curve
- fractional response to histamine in the absence of Galpha16 (human Histamine H1 GPCR): reduced in the absence of Galpha16, it is still significant
- response in the absence of the Histamine H1 receptor (human Histamine H1 GPCR): no response

Compound: Oc1cc2c(cc1O)C(c1ccccc1)CNCC2 (stereo not shown) [SKF38393]
- agonist concentration-activity curve (human Dopamine D1A GPCR; increasing concentrations of agonist, FIG. 5): characteristic sigmoidal agonist concentration-activity curve

Compound: Cc1ccc(/C(=C\CN2CCCC2)c2ccccn2)cc1.Cl [triprolidone hydrochloride]
- block of histamine agonist activity by pre-incubation with antagonist (human Histamine H1 GPCR; FIG. 12): can be blocked
- antagonist concentration-activity curve (human Histamine H1 GPCR; varying antagonist against fixed histamine at 100 microM, FIG. 12): Characteristic sigmoidal antagonist concentration-activity curves

Compound: CCCCC[C@H](O)/C=C/[C@H]1[C@@H]2CO[C@@H](C2)[C@@H]1C/C=C\CCCC(=O)O [U44069]
- agonist concentration-activity curve ([1]; increasing concentrations of agonist, FIG. 9): characteristic sigmoidal agonist concentration-activity curve

Compound: NC[C@H](O)c1ccc(O)c(O)c1 [nor-epinephrine]
- response of assay cells to agonist [2, 3]: respond
- agonist response in the absence of Galpha16 ([2]; cells without Galpha16): reduced in magnitude
